Reference: patent publication US20160296506A1, “Methods and Compositions for Treating HIV Infection” (priority 2012, published 2016)

Tests used:
[1] = system: carbamoyl-phosphate synthetase 2, aspartate transcarbamylase, and dihydroorotase (CAD); assay: CAD activity (phosphorylation at S1859) in IL-2/PHA-stimulated CD4 T cells; assay type: cell-based
Experimental: (§1) PLD inhibitors modulate intracellular deoxyribonucleotides levels. […] CD4 T-cells experiments were performed with ani-CD3/CD28-currently completing experiments with IL-2/phytohaemagglutinin (PHA)-stimulated CD4 T cells.

THP-1 cells = assay: dNTP levels in THP-1 cells (HPLC-MS); assay type: cell-based; settings: statement
Experimental: Briefly, Undifferentiated THP-1 cells (5×10̂6 cells/well) were treated with various inhibitors (10 μM EVJ, 10 μM JWJ, 100 nM rapamycin, 250 nM torin1, or 1 μM Go6976) for 16 h before harvest and extraction for HPLC-MS analysis of dNTP levels. Data represents analysis of triplicate samples.
Briefly, THP-1 cells (2.5×10^5 cells in 0.5 mL of c-RPMI (5×10^5/mL)/well) were seeded into 24-well plates and differentiated with 0.1 μM PMA for 24 h. Cells were then pretreated for 4 h with inhibitors (10 μM EVJ, 10 μM JWJ, 100 nM rapamycin, 250 nM torin1, or 10 μM concentration of two AKT inhibitors for comparison). Cells were then infected with HIV-1-GFP in the continued presence of inhibitors. Levels of infection were determined by flow cytometry (BD Biosciences FACSCalibur) 72 h post-infection. […] This difference is likely due to an increase in PLD1 activity in PMA-treated THP-1 cells.

CAD = assay: dNTP levels with CAD overexpression; assay type: cell-based; settings: FIG. 13
Plasma protein binding = assay type: in vitro ADME
IV pharmacokinetics = assay type: in vivo, mice; settings: dose 1 mg/kg; for half-life / Vd: mouse, plasma; for Vd: read-out: Vdss
[2] = PO plasma and brain levels; assay type: in vivo, mice; settings: dose 10 mg/kg
Experimental: The pharmacokinetic behavior of a representative disclosed PLD inhibitor of the present invention was assessed following […]. Briefly, mice were administered a single dose of a representative PLD inhibitor, either VUO364739 or VU359595 (10 mg/kg) by either intravenous injection or by oral administration. Plasma samples and tissue samples (brain) were isolated at various time points following euthanizing animal. The samples were flash frozen and stored at −80° C. Analysis was carried out by LC-MS/MS following extraction.

HIV-1 [3] = assay: HIV-1 infection in PMA-stimulated THP-1 cells (flow cytometry); assay type: cell-based; settings: 10 μM, 4 h pretreatment, HIV-1-GFP, 72 h post-infection, FIG. 10
HIV-1 [4] = assay: HIV-1 infection of U87.CD4.CXCR4 cells; assay type: cell-based; settings: data not shown
HIV-1 [5] = assay: HIV-1 replication in activated primary CD4+ T cells; assay type: cell-based, human; settings: 10 μM, PHA/IL2 activated after EVJ treatment, FIG. 14
primary T-cells = assay: dNTP increases in stimulated primary CD4 T-cells; assay type: cell-based, human; settings: FIG. 14
Experimental: as §1

U87MG cells = assay: SILAC proteomic analysis on U87MG cells; assay type: cell-based; settings: EVJ on U87MG cells, FIG. 12
Experimental: A SILAC proteomic analysis was conducted using the PLD1-preferring inhibitor EVJ on U87MG cells.

Row | SMILES | activity of CAD, phosphorylation at activation residue S1859 [1] | Deoxyribonucleotide (dNTP) levels (THP-1 cells) | dNTP levels upon CAD over expression (CAD) | Plasma Protein Binding (% bound) (Plasma protein binding) | CI (IV pharmacokinetics) [mL/min/kg] | half-life (IV pharmacokinetics) [h] | Vd (IV pharmacokinetics) [L/kg] | Plasma [2] [ng/kg] | HIV-1 replication in THP-1 cells, undifferentiated vs PMA-differentiated (HIV-1 [3]) | HIV-1 infection of U87.CD4.CXCR4 cells (HIV-1 [4]) | other results
1 | CNC(=O)c1cccc(-c2ccc3c(N4CCOC[C@@H]4C)nc(N4CCOC[C@@H]4C)nc3n2)c1 [AZD2014] | suppress activity | – | – | – | – | – | – | – | – | – | –
2 | NC(=O)NO [Hydroxyurea] | comparative modest effects | – | – | – | – | – | – | – | – | – | –
3 | NC1(c2ccc(-c3nc4ccn5c(=O)[nH]nc5c4cc3-c3ccccc3)cc2)CCC1 [MK2206, reference compound] | – | potently reduced | continues to block dNTP levels | – | – | – | – | – | – | – | –
4 | O=C(NCCN1CCC2(CC1)C(=O)NCN2c1cccc(F)c1)c1ccc2ccccc2c1 [No. 1, N-(2-(1-(3-fluorophenyl)-4-oxo-1,3,8-triazaspiro [4.5]decan-8-yl)ethyl)-2-naphthamide] | – | – | – | 98.1 | 60.7 | 0.78 | 4.7 | 29 | inhibits HIV-1 replication under both conditions | inhibit HIV-1 infection | Brain (ng/kg) [2]: BLQ; Brain: Plasma [2]: BLQ
5 | C[C@@H](CN1CCC(n2c(=O)[nH]c3cc(Br)ccc32)CC1)NC(=O)[C@@H]1C[C@@H]1c1ccccc1 [No. 2, (1R,2S)-N-((S)-1-(4-(5-bromo-2-oxo-2,3-dihydro-1H-benzo[d]imidazol-1-yl)piperidin-1-yl)propan-2-yl)-2-phenylcyclopropane carboxamide] | suppress activity | – | partially rescues the dNTP biosynthetic phenotype | 97.9 | 61.5 | 1.52 | 8.1 | 39.9 | more robust effect on HIV-1 replication in PMA-differentiated THP-1 cells | inhibit HIV-1 infection | Brain [2]: 29 ng/kg; Kp ([2]; mouse, brain/plasma): 0.73; HIV-1 replication in activated primary CD4+ T cells (HIV-1 [5]): inhibits HIV-1 replication; dNTP increases in CD4-receptor stimulated primary T-cells from human donors (primary T-cells): blunt dNTP increases; signaling pathway changed (network analysis) (U87MG cells): mTORC1 signaling is the predominant signaling pathway changed
6 | CCC(=O)N1CCN(c2ccc(-n3c(=O)ccc4cnc5ccc(-c6cnc7ccccc7c6)cc5c43)cc2C(F)(F)F)CC1 [Torin1] | suppress activity | potently reduced | – | – | – | – | – | – | – | – | –
